The text below walks through data of PMC6599797, “Functional characterization of three flavonoid glycosyltransferases from Andrographis paniculata” (Royal Society Open Science, 2019).

What all share (assay type): biochemical
Test [1] deals with T1, ApUFGT2 (Andrographis paniculata, UniProt A0A8E3S624).
T1 construct: gene UGT8
T1 sequence (A0A8E3S624 1-479): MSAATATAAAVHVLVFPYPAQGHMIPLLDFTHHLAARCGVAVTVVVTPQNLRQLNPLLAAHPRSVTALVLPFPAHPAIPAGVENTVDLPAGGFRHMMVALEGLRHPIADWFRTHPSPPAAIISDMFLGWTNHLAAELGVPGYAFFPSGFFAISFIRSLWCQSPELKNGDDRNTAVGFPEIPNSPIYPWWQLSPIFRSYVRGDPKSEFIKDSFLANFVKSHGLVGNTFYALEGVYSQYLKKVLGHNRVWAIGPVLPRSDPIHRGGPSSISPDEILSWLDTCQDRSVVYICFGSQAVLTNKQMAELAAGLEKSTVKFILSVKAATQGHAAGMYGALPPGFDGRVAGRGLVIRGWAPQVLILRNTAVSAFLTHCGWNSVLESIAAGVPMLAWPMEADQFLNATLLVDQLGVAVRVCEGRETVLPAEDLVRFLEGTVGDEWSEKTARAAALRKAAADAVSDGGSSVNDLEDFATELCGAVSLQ
Put plainly: UPLC conversion assay. The following applies: UDP-glucose donor; 50 mM Tris-HCl pH 8.0, 40 °C.

For test [2], the target named is T2, ApUFGT1 (Andrographis paniculata, UniProt A0A8E3MB50).
T2 construct: gene UGT2
T2 sequence (A0A8E3MB50 1-485): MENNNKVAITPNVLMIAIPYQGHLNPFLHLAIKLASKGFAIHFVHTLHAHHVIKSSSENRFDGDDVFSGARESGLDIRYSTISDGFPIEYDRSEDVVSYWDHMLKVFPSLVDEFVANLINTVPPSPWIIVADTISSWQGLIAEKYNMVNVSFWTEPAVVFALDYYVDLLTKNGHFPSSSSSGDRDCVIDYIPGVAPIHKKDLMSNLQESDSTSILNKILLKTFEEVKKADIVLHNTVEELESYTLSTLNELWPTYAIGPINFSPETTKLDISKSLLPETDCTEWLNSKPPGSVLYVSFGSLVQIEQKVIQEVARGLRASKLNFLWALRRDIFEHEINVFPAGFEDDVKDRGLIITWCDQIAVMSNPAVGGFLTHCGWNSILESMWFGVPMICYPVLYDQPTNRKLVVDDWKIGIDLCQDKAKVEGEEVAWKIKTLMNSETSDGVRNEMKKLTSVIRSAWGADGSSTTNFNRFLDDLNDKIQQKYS
As to the kind of experiment: UPLC conversion assay. As to conditions: UDP-glucose donor; 50 mM Tris-HCl pH 8.0, 40 °C.

Test [3] addresses T3, ApUFGT3 (Andrographis paniculata, UniProt A0A8E3S6A8).
T3 construct: gene UGT4
T3 sequence (A0A8E3S6A8 1-463): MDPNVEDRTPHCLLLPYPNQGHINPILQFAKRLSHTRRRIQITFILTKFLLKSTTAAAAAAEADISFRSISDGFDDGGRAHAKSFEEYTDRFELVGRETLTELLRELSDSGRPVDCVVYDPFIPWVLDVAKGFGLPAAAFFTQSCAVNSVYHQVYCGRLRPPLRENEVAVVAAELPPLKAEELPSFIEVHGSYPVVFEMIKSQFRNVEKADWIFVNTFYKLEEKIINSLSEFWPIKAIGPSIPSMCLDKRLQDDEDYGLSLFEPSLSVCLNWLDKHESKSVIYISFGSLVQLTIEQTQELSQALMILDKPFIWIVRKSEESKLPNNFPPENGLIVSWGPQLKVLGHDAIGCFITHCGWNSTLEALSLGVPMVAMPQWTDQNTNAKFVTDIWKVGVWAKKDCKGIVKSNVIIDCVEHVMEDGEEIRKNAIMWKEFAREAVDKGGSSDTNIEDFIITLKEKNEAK
Put plainly: UPLC conversion assay. As to conditions: UDP-glucose donor; 50 mM Tris-HCl pH 8.0, 40 °C.

Test [4] addresses T3, ApUFGT3. Put plainly: UPLC / Q-TOF-MS conversion assay. The following applies: UDP-glucose 3200 µM, aglycone 320 µM; Tris-HCl pH 8.0, 40 °C, 6 h.
Test [5] deals with T1, ApUFGT2. As to the kind of experiment: UPLC / Q-TOF-MS conversion assay. The following applies: UDP-glucose 3200 µM, aglycone 320 µM; Tris-HCl pH 8.0, 40 °C, 6 h.
In test [6] the target is T2, ApUFGT1. Put plainly: UPLC / Q-TOF-MS conversion assay. As to conditions: UDP-glucose 3200 µM, aglycone 320 µM; Tris-HCl pH 8.0, 40 °C, 6 h.

`COc1c(O)cc(O)c2c(=O)cc(-c3ccccc3)oc12` [wogonin]: the UPLC conversion assay entry at ApUFGT2 [1], at ApUFGT1 [2] and at ApUFGT3 [3] was “glycosylation of wogonin catalysed by ApUFGTs” in each case.
Regarding `O=c1cc(-c2ccc(O)cc2)oc2cc(O)cc(O)c12` [compound 1, apigenin], the “UPLC / Q-TOF-MS conversion assay” value at ApUFGT3 [4] is on record as “Product peak 1c was confirmed as apigetrin, namely, apigenin 7-O-glucoside”; on ApUFGT2 [5] it was “Product peak 1c was confirmed as apigetrin, namely, apigenin 7-O-glucoside”; on ApUFGT1 [6], “Product peak 1c was confirmed as apigetrin, namely, apigenin 7-O-glucoside”.
